Columns and labels:
LCK tyrosine kinase = biological target: T1, LCK tyrosine kinase (Homo sapiens, UniProt P06239, C224D/P223M); test: Inhibition of phosphorylated LCK tyrosine kinase activity; format: biochemical; details: read-out: LCK % Inhib. at 1 μM
T1 construct: starting from amino acid 223 to the end of the protein at amino acid 509; made in house; host or cells: insect cells
Method: Inhibition of Phosphorylated FGF Receptor and LCK Tyrosine Kinase Activity
Cloning, expression and purification of the cytosolic domain of FGFR1 tyrosine kinase (amino acids 456–766) containing three amino acid substitutions (L457V, C488A, and C584S) were conducted as previously described (Mohammadi, M., Schlessinger, J., & Hubbard, S. R. (1996) Cell 86, 577–587). This domain was expressed in Sf9 insect cells using a baculovirus expression vector, and protein was purified using conventional techniques. The LCK tyrosine kinase was expressed in insect cells as an N-terminal deletion starting from amino acid 223 to the end of the protein at amino acid 509. The N-terminus of the protein also had two amino acid substitutions, P223M and C 224D. Kinases were purified using conventional chromatographic methods.
Tyrosine kinase activity was measured using a coupled, continuous spectrophotometric assay, in which production of phosphorylated poly(Glu, Tyr; 4:1) substrate and ADP is coupled to the pyruvate kinase-catalyzed transfer of a phosphate from phosphoenolpyruvate to ADP, with generation of pyruvate and regeneration of ATP. Pyruvate production is in turn coupled to the lactate dehydrogenase-catalyzed reduction of pyruvate to form lactate, with concomitant conversion of NADH to NAD+. Loss of NADH is monitored by measuring absorbance at 340 nm (see e.g., Technikova-Dobrova et al., “Spectrophotometric determination of functional characteristics of protein kinases with coupled enzymatic assay,” FEBS Letters, vol. 292 (1991), pp. 69–72). Enzyme activity was measured in the presence of 200 mM HEPES (pH 7.5), 2 mM phosphoenolpyruvate, 0.3 mM NADH, 20 mM MgCl2, 100 μM ATP, 5 mM DTT, 5.1 or 25 mM poly (Glu,Tyr) 4:1 for P-FGF or P-LCK assays, respectively, and 15 units/mL each of pyruvate kinase and lactate dehydrogenase. Phosphorylated FGF receptor kinase was present at 100 nM and phosphorylated LCK kinase was present at 50 nM. Assays were performed under initial rate conditions at 37° C., and rates were corrected for any background rate measured in the absence of enzyme. Percent inhibition was calculated relative to control enzyme assayed in the presence of 2% (v/v) DMSO.

HCT 116 cell line = test: Inhibition of Cell Growth (MTT tetrazolium salt assay); format: cell-based; details: Homo sapiens, HCT 116, MTT; for IC50: 50% inhibition of growth, read-out: HCT 116 IC50; for IC90: read-out: HCT 116 IC90
Summary of the method: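 HCT 116 cells in McCoy's 5A were dosed 4 h after plating, in 0.5% (v/v) DMSO, then held 4–6 days at 37 °C, 5% CO2. MTT at 0.2 mg/mL final for 4 h; DMSO-solubilized formazan read at 540 nm. IC50 taken from the linear part of a semi-log plot versus DMSO-only controls.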

VEGF-R2 = biological target: T2, VEGF-R2 (Homo sapiens, UniProt P35968, DEL940-989/E990V); test: VEGF-R2 Assay (coupled spectrophotometric FLVK-P / ELISA); format: biochemical; details: read-out: VEGF % Inhib. at 1 μM
T2 construct: VEGF-R2Δ50 contains residues 806–939 and 990–1171; made in house; host or cells: baculovirus/insect cells
Source text: VEGF-R2 Construct for Assay
This construct determines the ability of a test compound to inhibit tyrosine kinase activity. A construct (VEGF-R2Δ50) of the cytosolic domain of human vascular endothelial growth factor receptor 2 (VEGF-R2) lacking the 50 central residues of the 68 residues of the kinase insert domain was expressed in a baculovirus/insect cell system. Of the 1356 residues of full-length VEGF-R2, VEGF-R2Δ50 contains residues 806–939 and 990–1171, and also one point mutation (E990V) within the kinase insert domain relative to wild-type VEGF-R2. […] See Parast et al., Biochemistry, 37,16788–16801 (1998).
Coupled Spectrophotometric (FLVK-P) Assay
The production of ADP from ATP that accompanies phosphoryl transfer was coupled to oxidation of NADH using phosphoenolpyruvate (PEP) and a system having pyruvate kinase (PK) and lactic dehydrogenase (LDH). The oxidation of NADH was monitored by following the decrease of absorbance at 340 nm (e340=6.22 cm^1 mM^−1) using a Beckman DU 650 spectrophotometer. Assay conditions for phosphorylated VEGF-R2A50 (indicated as FLVK-P in the tables below) were the following: 1 mM PEP; 250 μM NADH; 50 units of LDH/mL; 20 units of PK/mL; 5 mM DTT; 5.1 mM poly(E4Y1); 1 mM ATP; and 25 mM MgCl2 in 200 mM Hepes, pH 7.5. Assay conditions for unphosphorylated VEGF-R2A50 (indicated as FLVK in the tables) were the following: 1 mM PEP; 250 μM NADH; 50 units of LDH/mL; 20 units of PK/mL; 5 mM DTT; 20 mM poly(E4Y1); 3 mM ATP; and 60 mM MgCl2 and 2 mM MnCl2 in 200 mM Hepes, pH 7.5. Assays were initiated with 5 to 40 nM of enzyme. Ki values were determined by measuring enzyme activity in the presence of varying concentrations of test compounds. The data were analyzed using Enzyme Kinetic and Kaleidagraph software.
Formation of phosphogastrin was monitored using biotinylated gastrin peptide (1–17) as substrate. Biotinylated phosphogastrin was immobilized using streptavidin coated 96-well microtiter plates followed by detection using anti-phosphotyrosine-antibody conjugated to horseradish peroxidase. The activity of horseradish peroxidase was monitored using 2,2′-azino-di-[3-ethylbenzathiazoline sulfonate(6)] diammonium salt (ABTS). Typical assay solutions contained: 2 μM biotinylated gastrin peptide; 5 mM DTT; 20 μM ATP; 26 mM MgCl2; and 2 mM MnCl2 in 200 mM Hepes, pH 7.5. The assay was initiated with 0.8 nM of phosphorylated VEGF-R2Δ50. Horseradish peroxidase activity was assayed using ABTS, 10 mM. The horseradish peroxidase reaction was quenched by addition of acid (H2SO4), followed by absorbance reading at 405 nm. Ki values were determined by measuring enzyme activity in the presence of varying concentrations of test compounds. The data were analyzed using Enzyme Kinetic and Kaleidagraph software.

T1 sequence (P06239 223-509 P223M/C224D): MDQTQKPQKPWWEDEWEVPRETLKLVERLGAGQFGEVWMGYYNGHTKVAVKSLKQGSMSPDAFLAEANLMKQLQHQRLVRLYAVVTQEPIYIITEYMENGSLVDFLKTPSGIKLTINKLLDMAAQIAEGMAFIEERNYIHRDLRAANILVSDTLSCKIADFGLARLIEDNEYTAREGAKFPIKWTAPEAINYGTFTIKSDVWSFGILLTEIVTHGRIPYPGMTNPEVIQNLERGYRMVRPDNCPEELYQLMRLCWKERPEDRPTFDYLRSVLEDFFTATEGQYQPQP
T2 sequence (P35968 with tags, fused parts or gaps DEL940-989/E990V limits assumed): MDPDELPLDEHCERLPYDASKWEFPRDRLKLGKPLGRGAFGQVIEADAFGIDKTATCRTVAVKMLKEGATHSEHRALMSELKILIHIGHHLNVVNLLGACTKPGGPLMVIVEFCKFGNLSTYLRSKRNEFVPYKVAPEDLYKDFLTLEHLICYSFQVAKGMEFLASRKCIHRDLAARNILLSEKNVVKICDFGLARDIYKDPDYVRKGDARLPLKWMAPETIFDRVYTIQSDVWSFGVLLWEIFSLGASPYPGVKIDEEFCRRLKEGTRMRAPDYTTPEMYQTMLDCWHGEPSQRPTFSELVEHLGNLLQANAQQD

| inhibition at 1 µM (LCK tyrosine kinase) [%] | IC50 (HCT 116 cell line) [µM] | IC90 (HCT 116 cell line) [µM] | inhibition at 1 µM (VEGF-R2) [%] | Compound |
| --- | --- | --- | --- | --- |
| 21 | 1.5 | 3.8 | – | Cc1c(O)cccc1-c1ccc2[nH]nc(-c3nc4ccccc4[nH]3)c2c1 [10′, 3-[3-(1H-Benzoimidazol-2-yl)-1H-indazol-5-yl]-2-methyl-phenol] |
| 17 | 1.2 | 2.5 | – | Cc1c(O)cccc1-c1ccc2[nH]nc(/C=C/c3ccccc3)c2c1 [15′, 2-Methyl-3-[3-((E)-styryl)-1H-indazol-5-yl]-phenol] |
| 11 | 6 | 21 | 64 | Fc1ccccc1-c1ccc2[nH]nc(-c3nc4ccccc4[nH]3)c2c1 [Example 6, 3-(1H-Benzoimidazol-2-yl)-5-(2-fluorophenyl)-1H-Indazole] |

From patent publication US7232912B2, “Indazole compounds, pharmaceutical compositions, and methods for mediating or inhibiting cell proliferation” (Agouron Pharmaceuticals, Inc., priority 2000, dated 2007)
